US9365604B2, “Oligomer-nucleoside phosphate conjugates” (NEKTAR THERAPEUTICS, priority 2007, dated 2016)
Where two headings read alike, the source gives them in different places.

How the values were obtained:
A2780 = assay: Sulforhodamine B (SRB) growth inhibition assay; format: cell-based, Human; conditions: for GI50: SRB assay
Protocol: (§1) In Vitro Screening of PEG-Gemcitabine Monophosphate in Selected Human Cancer Cell Lines
(§2) The aim was to determine the GI50 values for PEG-floxuridine conjugates against a panel of cell lines, and based on previous data from Xenograft studies. […] The test articles were solubilized in dimethylsulfoxide and were tested at four different molar (M) concentrations; 10^−4, 10^−5, 10^−6, M. GI50 (the concentration needed to reduce the growth of treated cells to half that of untreated control cells) was calculated for each condition ([(Ti−Tz)/(C-Tz)]×100=50, where Ti, Tz, and C refer to absorbance values obtained from each tested concentration, time zero, and control treatment, respectively).
as §2, with “The objective” for “The aim”, “the IC50” for “the GI50”, “for PEG-gemcitabine” for “for PEG-floxuridine”, “in dimethyl sulfoxide” for “in dimethylsulfoxide”, “10^−6, 10^−7” for “10^−6,”, “condition ([(Ti−Tz)/(C−Tz)]×100=50,” for “condition ([(Ti−Tz)/(C-Tz)]×100=50,”

COLO205 = assay: Sulforhodamine B (SRB) growth inhibition assay; format: cell-based, Human; conditions: for GI50: COLO205, SRB assay
Protocol: as §1, §2
as §2, with “The objective” for “The aim”, “the IC50” for “the GI50”, “for PEG-gemcitabine” for “for PEG-floxuridine”, “in dimethyl sulfoxide” for “in dimethylsulfoxide”, “10^−6, 10^−7” for “10^−6,”, “condition ([(Ti−Tz)/(C−Tz)]×100=50,” for “condition ([(Ti−Tz)/(C-Tz)]×100=50,”

HCT15 = assay: Sulforhodamine B (SRB) growth inhibition assay; format: cell-based, Human; conditions: for GI50: SRB assay
Protocol: as §1, §2
as §2, with “The objective” for “The aim”, “the IC50” for “the GI50”, “for PEG-gemcitabine” for “for PEG-floxuridine”, “in dimethyl sulfoxide” for “in dimethylsulfoxide”, “10^−6, 10^−7” for “10^−6,”, “condition ([(Ti−Tz)/(C−Tz)]×100=50,” for “condition ([(Ti−Tz)/(C-Tz)]×100=50,”

HT29 = assay: Sulforhodamine B (SRB) growth inhibition assay; format: cell-based, Human; conditions: for GI50: SRB assay
Protocol: as §1, §2
as §2, with “The objective” for “The aim”, “the IC50” for “the GI50”, “for PEG-gemcitabine” for “for PEG-floxuridine”, “in dimethyl sulfoxide” for “in dimethylsulfoxide”, “10^−6, 10^−7” for “10^−6,”, “condition ([(Ti−Tz)/(C−Tz)]×100=50,” for “condition ([(Ti−Tz)/(C-Tz)]×100=50,”

Hop62 = assay: Sulforhodamine B (SRB) growth inhibition assay; format: cell-based, Human; conditions: for GI50: SRB assay
Protocol: as §1, §2
as §2, with “The objective” for “The aim”, “the IC50” for “the GI50”, “for PEG-gemcitabine” for “for PEG-floxuridine”, “in dimethyl sulfoxide” for “in dimethylsulfoxide”, “10^−6, 10^−7” for “10^−6,”, “condition ([(Ti−Tz)/(C−Tz)]×100=50,” for “condition ([(Ti−Tz)/(C-Tz)]×100=50,”

MCF7 = assay: Sulforhodamine B (SRB) growth inhibition assay; format: cell-based, Human; conditions: for GI50: SRB assay
Protocol: as §1, §2
as §2, with “The objective” for “The aim”, “the IC50” for “the GI50”, “for PEG-gemcitabine” for “for PEG-floxuridine”, “in dimethyl sulfoxide” for “in dimethylsulfoxide”, “10^−6, 10^−7” for “10^−6,”, “condition ([(Ti−Tz)/(C−Tz)]×100=50,” for “condition ([(Ti−Tz)/(C-Tz)]×100=50,”

NCI/ADR-RES = assay: Sulforhodamine B (SRB) growth inhibition assay; format: cell-based, Human; conditions: cells exposed for 24 h, read-out: GI50 values (μM) NCI/ADR-RES
Protocol: as §1
(§3) The aim was to determine the GI50 values for PEG-floxuridine conjugates against a panel of cell lines, and based on previous data from Xenograft studies. The cells were exposed for 24 h, and cell viability assessed by using the Sulphorhodamine (SRB) assay. The test articles were solubilized in dimethylsulfoxide and were tested at four different molar (M) concentrations; 10^−4, 10^−5, 10^−6, M. GI50 (the concentration needed to reduce the growth of treated cells to half that of untreated control cells) was calculated for each condition ([(Ti−Tz)/(C-Tz)]×100=50, where Ti, Tz, and C refer to absorbance values obtained from each tested concentration, time zero, and control treatment, respectively).
as §3, with “The objective” for “The aim”, “the IC50” for “the GI50”, “for PEG-gemcitabine” for “for PEG-floxuridine”, “in dimethyl sulfoxide” for “in dimethylsulfoxide”, “10^−6, 10^−7” for “10^−6,”, “condition ([(Ti−Tz)/(C−Tz)]×100=50,” for “condition ([(Ti−Tz)/(C-Tz)]×100=50,”

AS283 = assay: In vitro cytotoxicity assay (CellTiter-Glo); format: cell-based
Protocol: (§4) The objective of these studies was to determine the IC50 values for PEG-gemcitabine conjugates against gemcitabine-resistant cell lines based on data from previous Xenograft studies. The cells were exposed for 72 h, and cell viability assessed by using the CellTiter-Glo assay.

CCRF-CEM = assay: In vitro cytotoxicity assay (CellTiter-Glo); format: cell-based
Protocol: as §4

DLD-1 = assay: In vitro cytotoxicity assay (CellTiter-Glo); format: cell-based
Protocol: as §4

HL-60 = assay: In vitro cytotoxicity assay (CellTiter-Glo); format: cell-based
Protocol: as §4

K-562 = assay: In vitro cytotoxicity assay (CellTiter-Glo); format: cell-based
Protocol: as §4

NCI-H23 = assay: In vitro cytotoxicity assay (CellTiter-Glo); format: cell-based
Protocol: as §4

NCI-H460 = assay: In vitro cytotoxicity assay (CellTiter-Glo); format: cell-based
Protocol: as §4

NCI-H522 = assay: In vitro cytotoxicity assay (CellTiter-Glo); format: cell-based
Protocol: as §4

RL = assay: In vitro cytotoxicity assay (CellTiter-Glo); format: cell-based
Protocol: as §4

SW-620 = assay: In vitro cytotoxicity assay (CellTiter-Glo); format: cell-based
Protocol: as §4

[1] = on a mM basis
Protocol: Cells were inoculated into 24-well microtiter plates in 100 μL at 5×10^3 cells/well, in duplicate. After 24 h, test articles were added to the cells for 24 or 48 h, after which time the supernatant from each of the wells was collected and stored below −15° C. until LC/MS analysis.

MDCK cells = assay: Bi-directional permeability in MDCK cells
Description: (§5) Bi-Directional Permeability of PEG-Floxuridine Conjugates in Caco-2 and MDCK Cells

Caco-2 cells = assay: Bi-directional permeability in Caco-2 cells
Description: as §5

[2] = GI50 of conjugate vs gemcitabine

COCCOCCOCCOP(=O)(O)OC[C@H]1O[C@@H](n2ccc(N)nc2=O)C(F)(F)[C@@H]1O.Cl [Gemcitabine Mono (mPEG3), 5′-gemcitabine methoxy tri(ethylene glycol) phosphate hydrochloride]
ratio vs gem (GI50) A2780 (A2780; [2]): 2
GI50 (A2780; 48 h drug exposure, read-out: GI50 (molar concentration) in Cell Line A2780): 0.15 µM
GI50 (A2780; cells exposed for 24 h, read-out: GI50 values (μM) A2780): 0.15 µM
GI50 (COLO205; 48 h drug exposure, read-out: GI50 (molar concentration) in Cell Line COLO205): 0.16 µM
GI50 (COLO205; cells exposed for 24 h, read-out: GI50 values (μM) COLO205): 0.16 µM
ratio vs gem (GI50) COLO-205 (COLO205; COLO-205, GI50 of conjugate vs gemcitabine): 1
ratio vs gem (GI50) HCT15 (HCT15; [2]): 14
GI50 (HCT15; 48 h drug exposure, read-out: GI50 (molar concentration) in Cell Line HCT15): 2.2 µM
GI50 (HCT15; cells exposed for 24 h, read-out: GI50 values (μM) HCT15): 2.2 µM
ratio vs gem (GI50) HT29 (HT29; [2]): 13
GI50 (HT29; 48 h drug exposure, read-out: GI50 (molar concentration) in Cell Line HT29): 28 µM
GI50 (HT29; cells exposed for 24 h, read-out: GI50 values (μM) HT29): 28 µM
ratio vs gem (GI50) Hop62 (Hop62; [2]): 1
GI50 (Hop62; 48 h drug exposure, read-out: GI50 (molar concentration) in Cell Line Hop62): 2.6 µM
GI50 (Hop62; cells exposed for 24 h, read-out: GI50 values (μM) Hop62): 2.6 µM
ratio vs gem (GI50) MCF7 (MCF7; [2]): 2
GI50 (MCF7; 48 h drug exposure, read-out: GI50 (molar concentration) in Cell Line MCF7): 0.16 µM
GI50 (MCF7; cells exposed for 24 h, read-out: GI50 values (μM) MCF7): 0.158 µM
GI50 (NCI/ADR-RES): 1.7 µM
Ratio vs gem (IC50) AS283 (AS283): 3
IC50 (AS283; 72 h exposure, CellTiter-Glo): 408 nM
Ratio vs gem (IC50) CCRF-CEM (CCRF-CEM): 1
IC50 (CCRF-CEM; 72 h exposure, CellTiter-Glo): 6.5 nM
Ratio vs gem (IC50) DLD-1 (DLD-1): 4
IC50 (DLD-1; 72 h exposure, CellTiter-Glo): 93 nM
Ratio vs gem (IC50) HL-60 (HL-60): 1
IC50 (HL-60; 72 h exposure, CellTiter-Glo): 2 nM
Ratio vs gem (IC50) K-562 (K-562): 1
IC50 (K-562; 72 h exposure, CellTiter-Glo): 914 nM
Ratio vs gem (IC50) NCI-H23 (NCI-H23): 3
IC50 (NCI-H23; 72 h exposure, CellTiter-Glo): 18 nM
Ratio vs gem (IC50) NCI-H460 (NCI-H460): 3
IC50 (NCI-H460; 72 h exposure, CellTiter-Glo): 43 nM
Ratio vs gem (IC50) NCI-H522 (NCI-H522): 8
IC50 (NCI-H522; 72 h exposure, CellTiter-Glo): 36 nM
Ratio vs gem (IC50) RL (RL): 2
IC50 (RL; 72 h exposure, CellTiter-Glo): 568 nM
Ratio vs gem (IC50) SW-620 (SW-620): 2
IC50 (SW-620; 72 h exposure, CellTiter-Glo): 95 nM
remains after 24 and 48 h [1]: approximately 80%
Papp A -> B (MDCK cells): <0.06 10^−6 cm/s
Papp B -> A (MDCK cells): <0.08 10^−6 cm/s
Significant efflux (MDCK cells): No
percent recovery A -> B (MDCK cells): 91%
percent recovery B -> A (MDCK cells): 96%
Papp A -> B (Caco-2 cells): <0.06 10^−6 cm/s
Papp B -> A (Caco-2 cells): <0.08 10^−6 cm/s
Significant efflux (Caco-2 cells): No
percent recovery A -> B (Caco-2 cells): 78%
percent recovery B -> A (Caco-2 cells): 90%
